From PMC6321525 (Molecules, 2018)
Several values for one entry are separate records, joined by “and”; a condition that tells them apart may be missing. Equal entries are not always repeated.

Legend:
Assay in all cases: biochemical
Assay type in all cases: biochemical
[1] = molecular target: EeAChE (acetylcholinesterase from Electrophorus electricus) (Electrophorus electricus, UniProt O42275); conditions: for fold enhanced potency against EeAChE compared to donepezil: ratio of IC50 values; for IC50: with standard error, 25 °C, 10 min preincubation, read-out: IC50, inhibition of EeAChE
Protocol: (§1) Experiments were performed as previously described. […] All assays were performed in duplicate or triplicate.

[2] = molecular target: T1, EfBChE (butyrylcholinesterase from equine serum) (Equus caballus, UniProt P81908); conditions: for SI, selectivity index based on IC50 values (EeAChE vs EfBChE): ratio of EfBChE to EeAChE IC50 values; for fold better than donepezil against EfBChE: ratio of IC50 values; for IC50: with standard error, 25 °C, 10 min preincubation, read-out: IC50, inhibition of EfBChE
T1 construct: EfBChE from equine serum (Equus ferus); from tissue; host or cells: equine serum
Protocol: as §1

BACE1 = molecular target: T2, BACE1 (Homo sapiens, UniProt P56817); conditions: for IC50: fluorescence after 2 h, read-out: IC50, inhibition of BACE1
T2 construct: purchased Millipore-Sigma CS0010-1KT
Protocol: Inhibition of BACE1 was tested using the commercial kit (cat CS0010-1KT, Millipore-Sigma, St. Louis, MO, USA) following the directions accompanying the kit. […] Dilutions were originally performed in DMSO, and 2 μL added to the reaction in order to account for any moderation of activity from the vehicle. Fluorescent measurements were taken after 2 h. The resulting rates were normalized to the reaction without inhibitor. In order to get an appropriate sigmoidal fit, two additional points (400 and 1000 μM) were added to the data when needed.

[3] = molecular target: HsAChE (acetylcholinesterase from Homo sapiens) (Homo sapiens, UniProt P22303)
Protocol: as §1

HsAChE (acetylcholinesterase from Homo sapiens), sequence (P22303 32-614): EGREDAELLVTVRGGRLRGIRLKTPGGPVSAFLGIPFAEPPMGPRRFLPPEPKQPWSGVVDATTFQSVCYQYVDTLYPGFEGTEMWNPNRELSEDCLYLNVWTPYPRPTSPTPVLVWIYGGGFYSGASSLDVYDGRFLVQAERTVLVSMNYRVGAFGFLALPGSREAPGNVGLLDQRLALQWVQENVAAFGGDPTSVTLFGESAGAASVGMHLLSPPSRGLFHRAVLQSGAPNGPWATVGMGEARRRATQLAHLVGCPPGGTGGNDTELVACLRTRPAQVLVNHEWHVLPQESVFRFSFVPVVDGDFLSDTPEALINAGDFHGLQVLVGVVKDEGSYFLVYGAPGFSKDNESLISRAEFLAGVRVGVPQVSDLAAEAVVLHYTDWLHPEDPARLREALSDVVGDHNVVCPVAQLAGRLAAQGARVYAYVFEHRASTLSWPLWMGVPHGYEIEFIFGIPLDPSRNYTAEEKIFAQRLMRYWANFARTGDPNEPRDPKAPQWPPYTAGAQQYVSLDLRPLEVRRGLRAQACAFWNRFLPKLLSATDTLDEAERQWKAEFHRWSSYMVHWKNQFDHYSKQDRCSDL
T2 sequence (P56817 46-457): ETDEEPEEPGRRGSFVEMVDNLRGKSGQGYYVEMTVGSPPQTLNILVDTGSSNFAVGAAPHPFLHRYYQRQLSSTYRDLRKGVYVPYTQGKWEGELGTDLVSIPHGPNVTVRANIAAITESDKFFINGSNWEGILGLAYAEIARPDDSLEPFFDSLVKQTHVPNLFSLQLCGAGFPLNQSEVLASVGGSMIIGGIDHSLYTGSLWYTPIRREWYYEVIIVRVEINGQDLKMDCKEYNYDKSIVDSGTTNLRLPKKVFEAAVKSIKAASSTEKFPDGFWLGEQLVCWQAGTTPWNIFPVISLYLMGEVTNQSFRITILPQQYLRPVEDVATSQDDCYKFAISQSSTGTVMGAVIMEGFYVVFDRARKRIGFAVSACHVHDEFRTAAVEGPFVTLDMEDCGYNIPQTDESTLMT
T1 sequence (P81908 whole entry): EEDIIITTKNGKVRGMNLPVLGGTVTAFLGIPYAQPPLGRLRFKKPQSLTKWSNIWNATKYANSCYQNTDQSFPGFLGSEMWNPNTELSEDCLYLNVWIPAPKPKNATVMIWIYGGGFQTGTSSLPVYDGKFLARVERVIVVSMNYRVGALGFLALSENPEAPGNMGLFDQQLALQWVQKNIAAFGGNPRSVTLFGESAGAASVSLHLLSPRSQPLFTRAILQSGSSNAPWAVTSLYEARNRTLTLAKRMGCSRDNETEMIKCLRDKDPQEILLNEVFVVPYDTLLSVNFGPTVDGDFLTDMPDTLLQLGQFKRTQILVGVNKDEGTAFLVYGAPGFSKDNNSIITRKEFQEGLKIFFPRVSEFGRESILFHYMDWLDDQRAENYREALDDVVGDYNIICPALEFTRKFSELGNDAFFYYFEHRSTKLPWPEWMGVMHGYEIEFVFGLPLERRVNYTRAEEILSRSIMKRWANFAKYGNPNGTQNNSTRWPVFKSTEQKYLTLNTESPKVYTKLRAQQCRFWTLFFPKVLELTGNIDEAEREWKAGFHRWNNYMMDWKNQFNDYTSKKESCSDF
EeAChE (acetylcholinesterase from Electrophorus electricus), sequence (O42275 24-633): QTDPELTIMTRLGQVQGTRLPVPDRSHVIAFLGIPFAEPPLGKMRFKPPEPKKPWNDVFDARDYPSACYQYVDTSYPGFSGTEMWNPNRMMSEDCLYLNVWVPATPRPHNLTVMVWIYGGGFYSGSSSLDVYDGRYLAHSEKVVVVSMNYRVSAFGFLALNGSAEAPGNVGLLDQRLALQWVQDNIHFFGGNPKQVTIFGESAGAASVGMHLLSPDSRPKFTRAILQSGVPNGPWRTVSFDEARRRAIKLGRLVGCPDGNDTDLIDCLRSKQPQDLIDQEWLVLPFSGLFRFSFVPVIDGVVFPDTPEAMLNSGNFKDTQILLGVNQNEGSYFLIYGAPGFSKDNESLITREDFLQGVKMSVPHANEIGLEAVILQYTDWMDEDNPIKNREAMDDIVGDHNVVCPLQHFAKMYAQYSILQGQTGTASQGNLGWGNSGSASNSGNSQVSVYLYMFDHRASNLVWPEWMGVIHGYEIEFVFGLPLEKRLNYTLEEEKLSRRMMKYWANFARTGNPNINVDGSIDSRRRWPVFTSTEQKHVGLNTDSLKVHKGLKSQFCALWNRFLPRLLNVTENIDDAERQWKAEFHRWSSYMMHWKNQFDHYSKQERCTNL

Compound | fold enhanced potency against EeAChE compared to donepezil [1] | IC50 [1] | SI, selectivity index based on IC50 values (EeAChE vs EfBChE) [2] | fold better than donepezil against EfBChE [2] [fold] | IC50 [2] | IC50 (BACE1) [nM] | BACE1 IC50 within fold of the IC50 of donepezil (BACE1) [fold] | fold more selective for EfBChE (over EeAChE) [2] [fold] | SI, selectivity index of EeAChE versus HsAChE, based on IC50 values [3] | IC50 ([3]; 37 °C, read-out: IC50, inhibition of HsAChE) [nM] | fold better inhibition of HsAChE than donepezil ([3]; ratio of IC50 values) [fold]
COc1cc2c(cc1OCc1c(F)cccc1F)C(=O)C(CC1CCN(Cc3ccccc3)CC1)C2 (centres unmarked) [Compound 8s] | eight | 16 ± 1 nM | 28 | 5 | 438 nM and 440 nM | 30000 ± 8000 |  |  |  |  | 
COc1cc2c(cc1OCc1ccc(Br)cc1)C(=O)C(CC1CCN(Cc3ccccc3)CC1)C2 (centres unmarked) [Compound 8l] |  | 71 ± 15 nM | 10 |  | 720 ± 100 nM | 3400 ± 100 | ≤ 5 |  |  |  | 
COc1cc2c(cc1OCCCN)C(=O)C(CC1CCN(Cc3ccccc3)CC1)C2 (centres unmarked) [Compound 8a, 6-[(3-Aminopropyl)oxy]-2-[(1-benzylpiperidin-4-yl)methyl]-5-methoxy-2,3-dihydroinden-1-one] |  | 54 ± 3 nM | 11 | 4 | 573 nM and 570 nM | 95000 ± 12000 |  |  |  |  | 
COc1cc2c(cc1OCc1ccc(C)cc1)C(=O)C(CC1CCN(Cc3ccccc3)CC1)C2 (centres unmarked) [Compound 8i] |  | 228 nM and 230 nM | 4.3 |  | 997 nM and 1000 nM | 58000 ± 2000 |  |  |  |  | 
COc1cc2c(cc1OCc1cccc(F)c1)C(=O)C(CC1CCN(Cc3ccccc3)CC1)C2 (centres unmarked) [Compound 8n] |  | 156 nM and 160 nM | 6.0 |  | 959 nM and 960 nM | 12000 ± 3000 |  |  |  |  | 
COc1cc2c(cc1OCc1ccccc1)C(=O)C(CC1CCN(Cc3ccccc3)CC1)C2 (centres unmarked) [Compound 8h] |  | 131 nM and 130 nM | 5.4 | 3 | 704 nM and 700 nM | 58000 ± 1000 |  |  |  |  | 
COc1cc2c(cc1OCc1ccccc1C(F)(F)F)C(=O)C(CC1CCN(Cc3ccccc3)CC1)C2 (centres unmarked) [Compound 8p] | 4 fold | 32 ± 10 nM | 7.8 | 8 | 254 nM and 250 nM | 34000 ± 9000 |  |  |  |  | 
COc1cc2c(cc1OCCN)C(=O)C(CC1CCN(Cc3ccccc3)CC1)C2 (centres unmarked) [Compound 8b, 6-[(3-Aminoethyl)oxy]-2-[(1-benzylpiperidin-4-yl)methyl]-5-methoxy-2,3-dihydroinden-1-one] | 6 fold | 21 ± 3 nM | 23 | 4 | 478 nM and 480 nM | ~100000 |  |  |  |  | 
COc1cc2c(cc1OCc1ccc(F)cc1F)C(=O)C(CC1CCN(Cc3ccccc3)CC1)C2 (centres unmarked) [Compound 8q] |  | 113 nM and 110 nM | 4.4 | 4 | 483 nM and 480 nM | 37000 ± 5000 |  |  |  |  | 
COc1cc2c(cc1OCc1ccccc1F)C(=O)C(CC1CCN(Cc3ccccc3)CC1)C2 (centres unmarked) [Compound 8o] |  | 124 nM and 120 nM | 6.3 |  | 764 nM and 760 nM | 21000 ± 4000 |  |  |  |  | 
COc1ccc(COc2cc3c(cc2OC)CC(CC2CCN(Cc4ccccc4)CC2)C3=O)cc1 (centres unmarked) [Compound 8j] |  | 125 nM and 130 nM | 5.2 |  | 668 nM and 670 nM |  |  |  |  |  | 
COc1cc2c(cc1OCc1ccc([N+](=O)[O-])cc1)C(=O)C(CC1CCN(Cc3ccccc3)CC1)C2 (centres unmarked) [Compound 8k] |  | 126 nM and 130 nM | 3.5 |  | 462 nM and 460 nM |  |  |  |  |  | 
COc1cc2c(cc1OCc1ccc(F)cc1)C(=O)C(CC1CCN(Cc3ccccc3)CC1)C2 (centres unmarked) [Compound 8m] |  | 81 ± 5 nM | 7.0 |  | 570 ± 100 nM | ~100000 |  |  |  |  | 
COc1cc2c(cc1OCc1cc(F)ccc1F)C(=O)C(CC1CCN(Cc3ccccc3)CC1)C2 (centres unmarked) [Compound 8r] |  | 90 ± 9 nM | 6.7 | 3 | 601 nM and 600 nM | ~100000 |  |  |  |  | 
COc1cc2c(cc1OCc1c(F)c(F)c(F)c(F)c1F)C(=O)C(CC1CCN(Cc3ccccc3)CC1)C2 (centres unmarked) [Compound 8v] |  | 172 nM and 170 nM |  | 18 | 114 nM and 110 nM | 29000 ± 6000 |  | 1.5 |  |  | 
COc1cc2c(cc1OCCCCBr)C(=O)C(CC1CCN(Cc3ccccc3)CC1)C2 (centres unmarked) [Compound 8f, 2-[(1-Benzylpiperidin-4-yl)methyl]-6-[(bromobutyl)oxy]-5-methoxy-2,3-dihydroinden-1-one] |  | 61 ± 7 nM | 21 |  | 1280 nM and 1300 nM | 7900 ± 2400 | ≤ 5 |  |  |  | 
COc1cc2c(cc1OCCBr)C(=O)C(CC1CCN(Cc3ccccc3)CC1)C2 (centres unmarked) [Compound 8e, 2-[(1-Benzylpiperidin-4-yl)methyl]-6-[(bromoethyl)oxy]-5-methoxy-2,3-dihydroinden-1-one] | 3 fold | 44 ± 3 nM | 30 | 2 | 1290 nM and 1300 nM | 7900 ± 900 | ≤ 5 |  |  |  | 
CCCOc1cc2c(cc1OC)CC(CC1CCN(Cc3ccccc3)CC1)C2=O (centres unmarked) [Compound 8c, 2-[(1-Benzylpiperidin-4-yl)methyl]-5-methoxy-6-propoxy-2,3-dihydroinden-1-one] |  | 140 ± 20 nM | 15 |  | 2050 nM and 2100 nM | 6100 ± 100 | ≤ 5 |  |  |  | 
COc1cc2c(cc1OCc1ccc(Br)cc1F)C(=O)C(CC1CCN(Cc3ccccc3)CC1)C2 (centres unmarked) [Compound 8t] | 2.2 fold | 54 ± 7 nM | 6.9 |  | 372 nM and 370 nM | 169000 ± 2000 |  |  | 30 | 1.8 ± 0.6 | 18
COc1cc2c(cc1OCCCl)C(=O)C(CC1CCN(Cc3ccccc3)CC1)C2 (centres unmarked) [Compound 8d, 2-[(1-Benzylpiperidin-4-yl)methyl]-6-[(chloroethyl)oxy]-5-methoxy-2,3-dihydroinden-1-one] | 2 fold | 59 ± 4 nM | 22 | 2 | 1300 ± 100 nM | ~100000 |  |  |  |  | 
COc1cc2c(cc1OCCCCCCCCCCCCBr)C(=O)C(CC1CCN(Cc3ccccc3)CC1)C2 (centres unmarked) [Compound 8g, 2-[(1-Benzylpiperidin-4-yl)methyl]-6-[(bromododecyl)oxy]-5-methoxy-2,3-dihydroinden-1-one] |  | 789 nM and 790 nM | 6.6 |  | 5150 nM and 5200 nM |  |  |  |  |  | 
COc1cc2c(cc1OCc1c(F)cc(F)cc1F)C(=O)C(CC1CCN(Cc3ccccc3)CC1)C2 (centres unmarked) [Compound 8u] | five | 27 ± 4 nM | 7.4 | 10 | 199 nM and 200 nM | 91000 ± 14000 |  |  |  |  | 
COc1cc2c(cc1O)C(=O)C(CC1CCN(Cc3ccccc3)CC1)C2 (centres unmarked) [Compound 7, 2-[(1-Benzylpiperidin-4-yl)methyl]-6-hydroxy-5-methoxy-2,3-dihydroinden-1-one] |  | 409 nM and 410 nM | 11 |  | 4300 ± 400 nM |  |  |  |  |  | 
